Where no end group is shown, it is not given here.
Assays:
endo-proteinase Glu-C V8 = endo-proteinase Glu-C V8 (Staphylococcus aureus, UniProt P0C1U8); details: 100 mM Tris-HCl pH 7.8 (carbonate buffer in Figure 6); 0.5 mg/mL; read-out HPLC (fragment MOG37–55 at 13.55 min), MS and UPLC-MS/MS
Protocol: This cleavage experiment aimed to identify fragment MOG37–55 by HPLC analysis. […] In particular, endo-proteinase Glu-C V8, a proteolytic serine, sequencing grade from Staphylococcus aureus V8, (Roche, lot no. 32228800) was used. This enzyme acts at the carboxylic acid of the Glu amino acid. […] The same experiment of enzymatic hydrolysis with a glutamate enzyme was also carried out with oxidized mannan–(KG)5-MOG35–55 conjugate.

[1] = Polarity by reversed-phase HPLC retention; assay type: physicochemical; details: chromatographic, RP-18 (C18) column, gradient 5–100% AcN in 30 min, 0.08% TFA, 214 nm
Protocol: Figure 8 HPLC analysis of peptide (KG)5-MOG35–55 (214 nm) and oxidized mannan–(KG)5-MOG35–55. HPLC analysis of (A) (KG)5-MOG35–55 and (B) oxidized mannan–(KG)5-MOG35–55 solution after 3 years (214 nm) showing the stability of the conjugate. […] The oxidized mannan–(KG)5-MOG35–55 conjugate was very polar, and it appeared at an earlier retention time compared to the less polar (KG)5-MOG35–55 peptide. The HPLC method used: gradient 5–100% AcN in 30 min.

[2] = test system: endo-proteinase Glu-C V8, sequencing grade from Staphylococcus aureus V8; test: endo-proteinase Glu-C V8 in 100 mM Tris-HCL, pH 7.8
[3] = test system: patients with secondary progressive MS; details: cited from earlier work
Protocol: The study was performed for the first time using a peptide epitope on patients with secondary progressive MS (MAESTRO-01 study).

adenocarcinoma patients = details: cited from earlier work
Description: We have shown that mannan, a poly-mannose carbohydrate isolated from the cell wall of yeast when conjugated to cancer proteins, induces Th1 or Th2 immune responses depending on the mode of conjugation and has therapeutic benefits against cancer when conjugated to peptides, proteins, and DNA. […] In addition, mannan has the added advantage, as it stimulates dendritic cells via Toll-like receptor 4. In MS, mannan conjugated to linear o ...

[4] = old lab batches kept at 5 ± 3 °C since 2014; HPLC (data not shown)
Protocol: We used a Waters 2695 HPLC (Alliance) system using a photodiode array detector. A Lichrosorb RP-18 reversed-phase analytical column (C18 […], 4.6 × 50 mm PIN 186003034). […] The reaction of oxidized mannan with a (KG)5-MOG35–55 peptide was monitored by HPLC. […] The samples were kept for 3 years and assessed by HPLC for stability.
The stability of the oxidized mannan–(KG)5-MOG35–55 conjugate was analyzed after 3 years of storage.

CD4 T cells = details: cited from earlier work
Description: The induction of immunological tolerance through the action of dendritic cells is a newly introduced strategy for the treatment of MS. Peripheral blood mononuclear cells (PBMCs) were isolated from patients with relapsing-remitting (RR-MS) and age- and sex-matched healthy individuals (controls).

[5] = test system: experimental autoimmune encephalomyelitis (EAE); details: cited from earlier work
Description: Several biological studies, including in vitro and in vivo assays, have been carried out to evaluate the effects of mannan–myelin peptide conjugates. […] In another study, mannan–MOG35–55 reversed experimental autoimmune encephalomyelitis, inducing a pe ...

[6] = another study, wording is the title of ref 20
[7] = compared to EAE controls, 19 (wording matches ref 30)

endo-proteinase Glu-C V8, sequence (P0C1U8 69-336): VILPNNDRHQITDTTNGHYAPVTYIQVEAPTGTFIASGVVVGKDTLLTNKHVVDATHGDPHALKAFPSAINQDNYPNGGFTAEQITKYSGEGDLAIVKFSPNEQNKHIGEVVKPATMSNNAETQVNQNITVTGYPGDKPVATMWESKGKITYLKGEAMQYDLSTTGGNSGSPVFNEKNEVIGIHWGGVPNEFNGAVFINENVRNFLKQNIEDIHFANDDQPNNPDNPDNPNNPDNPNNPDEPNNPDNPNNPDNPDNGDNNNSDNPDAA

Substance: (KG)5-MOG35–55: peptide MOG35–55 synthesized with (KG)5 at its N-terminus (MEVGWYRSPFSRVVHLYRNGK; N-terminal (KG)5 linker; UniProt Q61885 63-83, looked up, fragment)
- Cleavage by endo-proteinase Glu-C (endo-proteinase Glu-C V8): cleavage of the peptide
- Polarity from HPLC retention time [1]: less polar

Substance: KGKGKGKGKGMEVGWYRPPFSRVVHLYRNGK
- cleaved bond [2]: Glu36-Val37

Substance: MBP82–98: myelin basic protein epitope peptide clinically tested in phases I, II and III (PADPGSRPHLIRLFSRD; dirucotide; UniProt P02686 82-98, looked up, fragment)
- Safety in clinical trials ([3]; phases I, II and III): safe
- Efficacy in clinical trial ([3]; secondary progressive MS, MAESTRO-01 study, trial suspended): lack of efficacy

Substance: mannan conjugated to MUC1 protein: mannan conjugated to MUC1 cancer protein, tested in humans
- Clinical responses (adenocarcinoma patients; adenocarcinoma patients): clinical responses
- Cancer recurrence (adenocarcinoma patients; in humans): protection against cancer recurrence
- Immune responses (adenocarcinoma patients; in humans): induces immune responses

Substance: oxidized mannan–(KG)5-MOG35–55: MOG35–55 peptide conjugated to oxidized mannan via the (KG)5 linker at its N-terminus (KGKGKGKGKGMEVGWYRSPFSRVVHLYRNGK; also: conjugated to oxidized mannan via Schiff base on linker lysine side chains; UniProt Q61885 63-83, looked up, fragment)
- Cleavage by endo-proteinase Glu-C (endo-proteinase Glu-C V8): cleavage of peptide sequence between amino acids Glu(36) and Val(37)
- Stability of the conjugate: fragmentation or detachment [4]: did not show any signs of fragmentation or detachment
- Activation levels of CD4 T cells (CD4 T cells; co-cultures with tolerogenic DCs presenting the conjugate, PBMCs from RR-MS patients and healthy controls): Inhibition of activation
- T-cell tolerance (CD4 T cells; tolerogenic DCs loaded with the conjugate, generated in vitro): induce T-cell tolerance
- Polarity from HPLC retention time [1]: very polar
- Development of neurological symptoms and inflammatory demyelinating spinal cord lesions ([5]; EAE models, peptide conjugated to oxidized mannan via (KG)5, earlier study, no reference given): inhibit
- Axons in spinal cord lesions [5, 6]: preserved
- CNS inflammation [5, 6]: reduced
- Effect on experimental autoimmune encephalomyelitis [5, 6]: reversed
- Peripheral myeloid response [5, 6]: inducing a peripheral type 2 myeloid response
- Antigen-specific T-cell proliferation [5, 7]: reduced
- Th1, Th17, and regulatory T-cell differentiation or T-cell apoptosis [5, 7]: no alterations
- Protection in EAE ([5]; therapeutic and prophylactic models, 19 (no reference at the sentence; wording matches ref 30)): showed protection
